Test results as given in paper PMC10353390, “Biological and Structural Analyses of New Potent Allosteric Inhibitors of HIV-1 Integrase” (Antimicrobial Agents and Chemotherapy, 2023).

Tests used:
HIV-1 IN = biological target: T1, HIV-1 IN (Human immunodeficiency virus type 1 group M subtype B, UniProt P12497); experiment: HTRF IN multimerization assay; format: biochemical; settings: mean ± SD
T1 construct: made in house
Excerpt: A key property of INLAIs is the ability to promote HIV-1 IN homo-multimerization ([39][–][42]). […] The maximal signal (plateau) in our IN aggregation assay corresponds to the highest HTRF signal increase under saturating INLAI concentration, relative to baseline level. Thus, MUT916, MUT884, MUT871, and MUT872 increased HIV-1 IN aggregation 3.7 to 4.4-fold, while BDM-2, BI-224436, and S-I-82 did so 5 to 6-fold (Table 1).

HXB2 HIV-1 strain = experiment: Multiple-round infection assay in MT4 cells, HXB2; format: cell-based; settings: Human immunodeficiency virus 1, HXB2; multiple-round infection, MT4 cells; mean ± SD, n > 5; read-out: EC50 HXB2
Procedure: Antiretroviral activity of BDM-2 and its analogs was first evaluated in lymphoblastoid cell line MT4 and in primary human T lymphocytes using NL4-3 and HXB2 laboratory HIV-1 isolates.
(§1) MT4 cells growing exponentially at the density of 10^6/mL were infected with HIV-1 strain NL4-3 at a multiplicity of infection (MOI) of 0.001 for 2 h in the presence of different concentrations of compounds, and the CellTiter-Glo luminescent reagent (Promega) was used to quantify cell viability as described previously ([12]).

NL4-3 HIV-1 strain = experiment: Multiple-round infection assay in MT4 cells, NL4-3; format: cell-based; settings: MT4 cells
[1] = Cytotoxicity assay in MT4 cells; format: cell-based; settings: human, MT4 cells (proliferating human T-cell line), CellTiter-Glo
Excerpt: Growth inhibition was monitored in a proliferating human T-cell line (MT4) with different concentrations of compounds, using the CellTiter-Glo luminescent reagent (Promega), as previously described ([12]).

[2] = tested on: VSV-G-pseudotyped NL4-3Δenv-luc; experiment: microbe, parasite or virus in culture; format: cell-based, HIV-1
[3] = tested on: recombinant NL4-3 viruses with polymorphisms at IN positions 124 and 125; experiment: Multiple-round infection of MT4 cells with recombinant NL4-3 viruses polymorphic at IN positions 124 and 125; format: cell-based, HIV-1
Excerpt: Located on the HIV-1 IN CCD dimerization interface, the principal INLAI binding pocket overlaps with a hot spot of amino acid sequence polymorphism involving IN residues 124 and 125 ([16]). To test if the new INLAIs maintained antiviral activity against major polymorphisms, we introduced all major combinations of residues found in circulating HIV-1 strains at positions 124 and 125 into NL4-3 HIV-1 molecular clone. In total, we evaluated 15 such combinations that collectively covered 98% of all HIV-1 clade polymorphisms involving these positions ([48]). To gauge effects on the antiviral activity, we calculated the EC50 fold change (FC) relative to wild type NL4-3 HIV-1 strain that features Thr124 and Thr125 (TT; specific polymorphisms are referred to by a single letter amino acid code).
as §1

[4] = tested on: primary HIV-1 isolates with polymorphisms at IN positions 124 and 125; experiment: Multiple-round infection of MT4 cells with primary HIV-1 isolates polymorphic at IN positions 124 and 125; format: cell-based; settings: primary isolate
Procedure: Next, we evaluated the potency of the BDM-2 series of INLAIs against several primary HIV-1 isolates with polymorphisms at IN positions 124 and 125.
as §1

[5] = tested on: HIV-1 strains resistant to INSTIs, NRTIs, NNRTIs or PIs; format: cell-based
Procedure: To this end, we used both recombinant viruses constructed by introducing described drug resistance mutations into NL4-3 HIV-1 clone as well as drug-resistant clinical HIV-1 isolates.
as §1

[6] = tested on: NL4-3 HIV-1 with INLAI-selected IN single point mutations; format: cell-based
[7] = biological target: HIV-1 IN-LEDGF/p75 interaction (Human immunodeficiency virus type 1 group M subtype B, UniProt P12497); experiment: biochemical
[8] = biological target: CCD of HIV-1 IN and IBD of LEDGF/p75 (Human immunodeficiency virus type 1 group M subtype B, UniProt P12497); experiment: biochemical
Procedure: The INLAIs were tested for the ability to inhibit the HIV-1 IN-LEDGF/p75 interaction in a homogeneous time-resolved fluorescence (HTRF) assay. Our assays used either full-length IN and LEDGF/p75 proteins or their respective minimally sufficient interaction domains: the CCD of HIV-1 IN and the IBD of LEDGF/p75 (Table 1).
HTRF-based CCD-IBD interaction, IN-LEDGF/p75 interaction and IN multimerization assays were performed as described previously ([12]).

[9] = INSTI-resistant, NL4-3 background

Q: With Cc1ccc(C2CC2)c(-c2ccc3c(c2)CCCO3)c1[C@H](OC1CC1)C(=O)O [MUT872] as the compound, how does the AC50 (HIV-1 IN; concentration for 50% maximum activation of multimerization) read?
A: 43 ± 11 nM

Q: And the “IN multimerization Plateau” value (HIV-1 IN; maximum multimerization reached versus baseline)?
A: 440 ± 48%

Q: And the EC50 (HXB2 HIV-1 strain)?
A: 18 ± 1 nM

Q: And the EC90 (NL4-3 HIV-1 strain; Human immunodeficiency virus 1, NL43, multiple-round infection, from dose response curves, read-out: EC90 NL4-3)?
A: 61 ± 19 nM

Q: What about the EC50 (NL4-3 HIV-1 strain; Human immunodeficiency virus 1, NL43, multiple-round infection, mean ± SD, n > 5, read-out: EC50 NL4-3) of the same compound?
A: 45 ± 12 nM

Q: What about the “Selectivity index CC50/EC50 NL4-3” value (NL4-3 HIV-1 strain) of the same compound?
A: 3,088

Q: What about the CC50 [1] of the same compound?
A: 139000 ± 29000 nM

Q: What about the “EC50 ratio (single/multiple-round infection)” value [2] of the same compound?
A: 196

Q: What about the EC50 ([2]; Human immunodeficiency virus 1, NL43, MT4, read-out: EC50 in single-round infection) of the same compound?
A: 8800 ± 300 nM

Q: What about the “Fold change in EC50 relative to parental NL4-3, AA” value ([3]; recombinant NL4-3, IN 124/125 AA) of the same compound?
A: 1

Q: What about the “Fold change in EC50 relative to parental NL4-3, AM” value ([3]; recombinant NL4-3, IN 124/125 AM) of the same compound?
A: 0.3

Q: And the “Fold change in EC50 relative to parental NL4-3, AT” value ([3]; recombinant NL4-3, IN 124/125 AT)?
A: 1

Q: And the “Fold change in EC50 relative to parental NL4-3, AV” value ([3]; recombinant NL4-3, IN 124/125 AV)?
A: 0.5

Q: And the “Fold change in EC50 relative to parental NL4-3, GA” value ([3]; recombinant NL4-3, IN 124/125 GA)?
A: 2

Q: And the “Fold change in EC50 relative to parental NL4-3, GT” value ([3]; recombinant NL4-3, IN 124/125 GT)?
A: 2

Q: What about the “Fold change in EC50 relative to parental NL4-3, NA” value ([3]; recombinant NL4-3, IN 124/125 NA) of the same compound?
A: 1

Q: What about the “Fold change in EC50 relative to parental NL4-3, NT” value ([3]; recombinant NL4-3, IN 124/125 NT) of the same compound?
A: 1

Q: And the “Fold change in EC50 relative to parental NL4-3, NV” value ([3]; recombinant NL4-3, IN 124/125 NV)?
A: 1

Q: And the “Fold change in EC50 relative to parental NL4-3, SA” value ([3]; recombinant NL4-3, IN 124/125 SA)?
A: 1

Q: What about the “Fold change in EC50 relative to parental NL4-3, ST” value ([3]; recombinant NL4-3, IN 124/125 ST) of the same compound?
A: 1

Q: And the “Fold change in EC50 relative to parental NL4-3, TA” value ([3]; recombinant NL4-3, IN 124/125 TA)?
A: 1

Q: What about the “Fold change in EC50 relative to parental NL4-3, TM” value ([3]; recombinant NL4-3, IN 124/125 TM) of the same compound?
A: 0.2

Q: What about the “Fold change in EC50 relative to parental NL4-3, TV” value ([3]; recombinant NL4-3, IN 124/125 TV) of the same compound?
A: 1

Q: What about the “Fold change in EC50 relative to parental NL4-3, CAM2BBY (CRF02)” value ([4]; IN 124/125 AA) of the same compound?
A: 1

Q: And the “Fold change in EC50 relative to parental NL4-3, E0836M4 (D)” value ([4]; IN 124/125 AA)?
A: 1

Q: And the “Fold change in EC50 relative to parental NL4-3, KER2008 (A)” value ([4]; IN 124/125 AA)?
A: 1

Q: What about the “Fold change in EC50 relative to parental NL4-3, NP1525 (CRF01)” value ([4]; IN 124/125 AA) of the same compound?
A: 1

Q: What about the “Fold change in EC50 relative to parental NL4-3, NP1695 (CRF02)” value ([4]; IN 124/125 AA) of the same compound?
A: 1

Q: What about the “Fold change in EC50 relative to parental NL4-3, TZA125 (C)” value ([4]; IN 124/125 AA) of the same compound?
A: 0.4

Q: And the “Fold change in EC50 relative to parental NL4-3, KSM4030 (A)” value ([4]; IN 124/125 GA)?
A: 2

Q: What about the “Fold change in EC50 relative to parental NL4-3, vGA (C)” value ([4]; IN 124/125 GA) of the same compound?
A: 4

Q: What about the “Fold change in EC50 relative to parental NL4-3, 99ET14 (C)” value ([4]; IN 124/125 NA) of the same compound?
A: 1

Q: What about the “Fold change in EC50 relative to parental NL4-3, NP1538 (B)” value ([4]; IN 124/125 NA) of the same compound?
A: 2

Q: And the “Fold change in EC50 relative to parental NL4-3, vNA_1 (B)” value ([4]; IN 124/125 NA)?
A: 1

Q: What about the “Fold change in EC50 relative to parental NL4-3, vNA_2 (CRF02)” value ([4]; IN 124/125 NA) of the same compound?
A: 2

Q: And the “Fold change in EC50 relative to parental NL4-3, vNV (B)” value ([4]; IN 124/125 NV)?
A: 1

Q: What about the “Fold change in EC50 relative to parental NL4-3, vSA_1 (B)” value ([4]; IN 124/125 SA) of the same compound?
A: 2

Q: And the “Fold change in EC50 relative to parental NL4-3, vSA_2 (CRF02)” value ([4]; IN 124/125 SA)?
A: 2

Q: And the “Fold change in EC50 relative to parental NL4-3, vTA_1 (B)” value ([4]; IN 124/125 TA)?
A: 2

Q: What about the “Fold change in EC50 relative to parental NL4-3, vTA_2 (CRF02)” value ([4]; IN 124/125 TA) of the same compound?
A: 2

Q: And the “Fold change in EC50 relative to NL4-3, E92Q” value [5, 9]?
A: 1

Q: And the “Fold change in EC50 relative to NL4-3, G140S” value [5, 9]?
A: 1

Q: And the “Fold change in EC50 relative to NL4-3, G140S/Q148H” value [5, 9]?
A: 1

Q: And the “Fold change in EC50 relative to NL4-3, N155H” value [5, 9]?
A: 1

Q: And the “Fold change in EC50 relative to NL4-3, Q148H” value [5, 9]?
A: 1

Q: What about the “Fold change in EC50 relative to NL4-3, Y143R” value [5, 9] of the same compound?
A: 0.5

Q: And the “Fold change in EC50 relative to NL4-3, NLAY351717” value ([5]; NRTI-resistant clone)?
A: 1

Q: And the “Fold change in EC50 relative to NL4-3, NLAY351753” value ([5]; NRTI/NNRTI-resistant clone)?
A: 1

Q: What about the “Fold change in EC50 relative to NL4-3, K103N/Y181C” value ([5]; NRTI/NNRTIs group, NL4-3 background) of the same compound?
A: 1

Q: And the “Fold change in EC50 relative to NL4-3, ARP-4595” value ([5]; PI-resistant virus)?
A: 1

Q: And the “Fold change in EC50 relative to NL4-3, ARP-4596” value ([5]; PI-resistant virus)?
A: 1

Q: And the “Fold change in EC50 relative to NL4-3, ARP-11801” value ([5]; PI-resistant virus)?
A: 2

Q: What about the “Fold change in EC50 relative to NL4-3, ARP-11803” value ([5]; PI-resistant virus) of the same compound?
A: 1

Q: And the “Fold change in EC50 relative to NL4-3, ARP-11807” value ([5]; PI-resistant virus)?
A: 1

Q: What about the “Fold change in EC50 relative to NL4-3, ARP-11808” value ([5]; PI-resistant virus) of the same compound?
A: 2

Q: What about the “EC50 fold change compared to wild type NL4-3, A128T” value [6] of the same compound?
A: 7

Q: What about the “EC50 fold change compared to wild type NL4-3, H171Q” value [6] of the same compound?
A: 1

Q: What about the “EC50 fold change compared to wild type NL4-3, N222K” value [6] of the same compound?
A: 2

Q: And the “EC50 fold change compared to wild type NL4-3, T174I” value [6]?
A: 15

Q: And the “EC50 fold change compared to wild type NL4-3, Y99H” value [6]?
A: 2

Q: What about the IC50 [7] of the same compound?
A: 170 ± 20 nM

Q: And the IC50 [8]?
A: 420 ± 70 nM
